Details: in water

O=[N+]([O-])c1ccc(/C=C/c2ccc([N+](=O)[O-])cc2S(=O)(=O)[O-])c(S(=O)(=O)[O-])c1.[Na+].[Na+]
Details | solubility (mole fraction)
284.85 K | 0.0013
290.35 K | 0.0017
293.05 K | 0.00197
296.45 K | 0.00228
301.45 K | 0.00302
304.55 K | 0.00353
307.75 K | 0.00394
309.85 K | 0.00434
312.05 K | 0.00498
316.25 K | 0.00595
319.25 K | 0.00674
321.95 K | 0.00756

Reference: BigSolDB 2.1
